Reference: US20250263370A1 (Tay Therapeutics Limited, priority 2022, published 2025)
Where “and” joins values, the source holds several entries; their conditions need not be identical. Identical values can stand only once. Like-named read-outs stand apart in the source and are kept apart here.

How the values were obtained:
[1] = Pharmacokinetics and plasma concentration of Example 101 in Lewis rats after oral administration (CIA study); type: in vivo, Lewis rat; conditions: oral, oral; for concentration at 21 day: 30 mg/kg, Day 21, Group 7 (CIA); for MRT inf: read-out: MRTInf—obs
CXCL10 = CXCL10 levels by ELISA in IFN-γ stimulated human peripheral blood mononuclear cells; type: cell-based; conditions: human PBMC
Description: The impact of Examples 23, 80, and 101 on IL-17A, IL-22, and CXCL10 levels was analyzed in cryopreserved human peripheral blood mononuclear cells (PBMC) by ELISA. […] For IL-17A and IL-22 assays, Examples 23, 80, and 101 were serially diluted from 10 mM in DMSO and further diluted in assay media to 100× the required final concentration, of which, 2 μL was added per well to a round-bottom 96-well tissue culture plate where the final DMSO concentration per well was 0.1%. CD2, CD3, and CD28 antibody-coated beads from the T-cell activation/expansion kit (Miltenyi Biotec) were added to the PBMC at a bead-to-cell ratio of 1:2.
The mixture of PBMCs and beads were seeded into the wells of the round-bottom 96-well plate at a concentration of 2×10^5 cells/well in a total volume of 200 μL. The cells were cultured for 72 hours at 37° C. and 5% CO2 and then supernatants were collected and IL-17A and IL-22 levels were measured by ELISA. For the CXCL10 assay, Examples 23, 80, and 101 were serially diluted from 10 mM in DMSO and further diluted in assay media to 100× the required final concentration, of which 2 μL was added per well to a 96-well tissue culture plate. The final compound concentration ranged from 30,000 nM to 0.005 nM and the final DMSO concentration per well was 0.3%. PBMCs were seeded at approximately 2×10^5 cells/well in the wells of the 96-well tissue culture plate in a total volume of 190 μL. The plate was incubated for 1 hour at 37° C. and 5% CO2. The cells were then stimulated with IFN-γ (15 ng/mL final concentration) in a volume of 10 μL. The cells were then cultured for 24 hours at 37° C. and 5% CO2. The supernatant was collected and CXCL10 levels were measured by ELISA.

[2] = Lewis, rat, plasma, po, 10 mg/kg, Lewis rats, 10 mg/kg, day 20, mean
[3] = Lewis, rat, plasma, po, 10 mg/kg, day 0, 10 mg/kg, Mean
[4] = Lewis, rat, plasma, po, 10 mg/kg, day 0, 10 mg/kg, per test subject
[5] = Lewis, rat, plasma, po, 10 mg/kg, day 20, 10 mg/kg, per test subject
[6] = day 0, 10 mg/kg, per test subject
[7] = day 20, 10 mg/kg, per test subject

SMILES: CNC(=O)c1[nH]c(C(=O)NC2CCC2)cc1O[C@@H](C)c1ccccc1 (stereo in doubt) [Example 101, N^5-cyclobutyl-N^2-methyl-3-(1-phenylethoxy)-1H-pyrrole-2,5-dicarboxamide]
- concentration at 12 h ([1]; Lewis, rat, plasma, 10 mg/kg, plasma, day 0, 10 mg/kg, 12 h, read-out: Mean Concentration): 799 ng/mL
- concentration at 14 h ([1]; Lewis, rat, plasma, 10 mg/kg, plasma, day 0, 10 mg/kg, 14 h, read-out: Mean Concentration): 439 ng/mL
- concentration at 24 h ([1]; Lewis, rat, plasma, 10 mg/kg, plasma, day 0, 10 mg/kg): 57 ng/mL
- concentration at 0.25 h ([1]; Lewis, rat, plasma, 10 mg/kg, plasma, day 20, 10 mg/kg, 0.25 h, read-out: Mean Concentration): 1410 ng/mL
- concentration at 0.5 h ([1]; Lewis, rat, plasma, 10 mg/kg, plasma, day 20, 10 mg/kg, 0.5 h, read-out: Mean Concentration): 1650 ng/mL
- concentration at 1 h ([1]; Lewis, rat, plasma, 10 mg/kg, plasma, day 20, 10 mg/kg, 1 h, read-out: Mean Concentration): 1640 ng/mL
- concentration at 2 h ([1]; Lewis, rat, plasma, 10 mg/kg, plasma, day 20, 10 mg/kg, 2 h, read-out: Mean Concentration): 1140 ng/mL
- concentration at 4 h ([1]; Lewis, rat, plasma, 10 mg/kg, plasma, day 20, 10 mg/kg, 4 h, read-out: Mean Concentration): 494 ng/mL
- concentration at 8 h ([1]; Lewis, rat, plasma, 10 mg/kg, plasma, day 20, 10 mg/kg, 8 h, read-out: Mean Concentration): 169 ng/mL
- concentration at 10 h ([1]; Lewis, rat, plasma, 10 mg/kg, plasma, day 20, 10 mg/kg, 10 h, read-out: Mean Concentration): 1450 ng/mL
- concentration at 12 h ([1]; Lewis, rat, plasma, 10 mg/kg, plasma, day 20, 10 mg/kg, 12 h, read-out: Mean Concentration): 406 ng/mL
- concentration at 14 h ([1]; Lewis, rat, plasma, 10 mg/kg, plasma, day 20, 10 mg/kg, 14 h, read-out: Mean Concentration): 138 ng/mL
- concentration at 24 h ([1]; Lewis, rat, plasma, 10 mg/kg, plasma, day 20, 10 mg/kg): 25 ng/mL
- concentration at 21 day ([1]; Lewis, rat, plasma, per animal, read-out: Plasma Concentration): 2290 ng/mL
- concentration at 21 day ([1]; Lewis, rat, plasma, read-out: Mean Plasma Concentration): 1580 ng/mL
- AUC(0-inf) [1, 2]: 10700 ng·h/mL
- AUC(0-t) [1, 2]: 10600 ng·h/mL
- half-life [1, 2]: 3.28 h
- Cmax ([1]; Lewis, rat, plasma, po, 10 mg/kg, Lewis rats, 10 mg/kg, day 20, mean, read-out: Cmax): 1710 ng/mL
- MRT inf [1, 2]: 6.66 h
- Tmax ([1]; Lewis, rat, plasma, po, 10 mg/kg, Lewis rats, 10 mg/kg, day 20, mean, read-out: Tmax): 0.67 h
- AUC(0-inf) [1, 3]: 15400 ng·h/mL
- AUC(0-t) [1, 3]: 15000 ng·h/mL
- half-life [1, 3]: 3.22 h
- Cmax ([1]; Lewis, rat, plasma, po, 10 mg/kg, day 0, 10 mg/kg, Mean, read-out: Cmax): 1980 ng/mL
- MRT inf [1, 3]: 8.61 h
- Tmax ([1]; Lewis, rat, plasma, po, 10 mg/kg, day 0, 10 mg/kg, Mean, read-out: Tmax): 7.3 h
- AUC(0-inf) [1, 4]: 14300 ng·h/mL
- AUC(0-t) [1, 4]: 14300 ng·h/mL
- Cmax ([1]; Lewis, rat, plasma, po, 10 mg/kg, day 0, 10 mg/kg, per test subject, read-out: Cmax): 1880 ng/mL
- MRT inf [1, 4]: 7.64 h
- AUC(0-inf) [1, 5]: 8500 ng·h/mL
- AUC(0-t) [1, 5]: 8420 ng·h/mL
- half-life [1, 5]: 3.46 h
- Cmax ([1]; Lewis, rat, plasma, po, 10 mg/kg, day 20, 10 mg/kg, per test subject, read-out: Cmax): 1660 ng/mL
- MRT inf [1, 5]: 6.09 h
- Tmax ([1]; Lewis, rat, plasma, po, 10 mg/kg, day 20, 10 mg/kg, per test subject, read-out: Tmax): 0.5 h
- Plasma concentration ([1]; day 0, 10 mg/kg, 0.5 h, per test subject): 673 ng/mL and 707 ng/mL
- Plasma concentration ([1]; day 0, 10 mg/kg, 1 h, per test subject): 1160 ng/mL and 1550 ng/mL
- Plasma concentration ([1]; day 0, 10 mg/kg, 2 h, per test subject): 997 ng/mL and 1610 ng/mL
- Plasma concentration ([1]; day 0, 10 mg/kg, 4 h, per test subject): 1060 ng/mL and 760 ng/mL
- Plasma concentration ([1]; day 0, 10 mg/kg, 8 h, per test subject): 107 ng/mL and 147 ng/mL
- Plasma concentration ([1]; day 0, 10 mg/kg, 10 h, per test subject): 2460 ng/mL and 1460 ng/mL
- Plasma concentration ([1]; day 0, 10 mg/kg, 12 h, per test subject): 968 ng/mL and 656 ng/mL
- Plasma concentration ([1]; day 0, 10 mg/kg, 14 h, per test subject): 525 ng/mL and 469 ng/mL
- AUClast/D ([1]; day 0, 10 mg/kg, Mean): 751 (ng·h/mL)/(mg/kg)
- AUC—% Extrap—obs ([1]; day 0, 10 mg/kg, Mean): 2.29%
- AUCInf [1, 6]: 16528 ng·h/mL and 15290 ng·h/mL
- AUClast [1, 6]: 16397 ng·h/mL and 14408 ng·h/mL
- AUClast/D [1, 6]: 713 (ng·h/mL)/(mg/kg) and 820 (ng·h/mL)/(mg/kg) and 720 (ng·h/mL)/(mg/kg)
- AUC—% Extrap—obs [1, 6]: 0.307% and 0.788% and 5.77%
- Cmax [1, 6]: 2460 ng/mL and 1610 ng/mL
- MRTInf—obs [1, 6]: 8.69 h and 9.50 h
- Tmax [1, 6]: 10.0 h
- Plasma concentration ([1]; day 20, 10 mg/kg, 0.25 h, per test subject): 1400 ng/mL and 1570 ng/mL
- Plasma concentration ([1]; day 20, 10 mg/kg, 0.5 h, per test subject): 1550 ng/mL and 1730 ng/mL
- Plasma concentration ([1]; day 20, 10 mg/kg, 1 h, per test subject): 1730 ng/mL and 1590 ng/mL
- Plasma concentration ([1]; day 20, 10 mg/kg, 2 h, per test subject): 1260 ng/mL and 1320 ng/mL
- Plasma concentration ([1]; day 20, 10 mg/kg, 4 h, per test subject): 513 ng/mL and 518 ng/mL
- Plasma concentration ([1]; day 20, 10 mg/kg, 10 h, per test subject): 1710 ng/mL and 1460 ng/mL
- Plasma concentration ([1]; day 20, 10 mg/kg, 12 h, per test subject): 461 ng/mL and 498 ng/mL
- AUCInf [1, 7]: 11782 ng·h/mL and 11743 ng·h/mL
- AUClast [1, 7]: 11699 ng·h/mL and 11548 ng·h/mL
- AUClast/D [1, 7]: 421 (ng·h/mL)/(mg/kg) and 585 (ng·h/mL)/(mg/kg) and 577 (ng·h/mL)/(mg/kg)
- AUC—% Extrap—obs [1, 7]: 0.982% and 0.700% and 1.65%
- Cmax [1, 7]: 1730 ng/mL
- MRTInf—obs [1, 7]: 6.80 h and 7.09 h
- T1/2 [1, 7]: 2.85 h and 3.54 h
- Tmax [1, 7]: 1.00 h and 0.500 h
- selectivity to induction of CXCL10 relative to IL-17A and IL-22 (CXCL10): showed selectivity to induction of CXCL10 relative to IL-17A and IL-22
- IC50 for CXCL-10 relative to GSK620 (CXCL10; IFN-γ, 24 hours): substantially lower IC50
- IC50 (CXCL10; Test Subject 1, read-out: CXCL10 IC50): > 30 µM
- IC50 (CXCL10; Test Subject 2, read-out: CXCL10 IC50): > 30 µM
- IC50 (CXCL10; Test Subject 3, read-out: CXCL10 IC50): > 30 µM
- IC50 (CXCL10; mean of test subjects, read-out: CXCL10 IC50 Mean): > 30 µM
